Where “and” joins values, the source holds several entries; their conditions need not be identical. Identical values can stand only once.
Experiments:
Format in all cases: in vivo
[1] = system: Glycine Max (GLXMA); test: Pre-harvest desiccation of crop plants; details: Table E, evaluated after 7 and 14 days (which not stated), 100=total damage to plant, 0=no damage
Procedure: (§1) Seeds of a variety of test species were sown in standard loam based soil in pots. After cultivation from between 21 and 28 days (post-emergence) under controlled conditions in a glasshouse (at 24/16° C., day/night; 14 hours light; 65% humidity) for warm climate species and (at 20/16° C. day/night; 15 hours light; 65% humidity) for cool climate species.
(§2) The plants were sprayed with an aqueous spray solution derived from dissolving the technical active ingredient formula in a small amount of acetone and a special solvent and emulsifier mixture referred to as IF50 (11.12% Emulsogen EL360 TM+44.44% N-methylpyrrolidone+44.44% Dowanol DPM glycol ether), to create a 50 g/I solution which was then diluted to required concentration using a solution of 1% Empicol ESC70 (Sodium lauryl ether sulphate)+1% ammonium sulphate in water as diluent.
(§3) The delivery of the aqueous spray solution was via a laboratory track sprayer which delivered the aqueous spray composition at a rate of 200 litres per hectare, using a flat fan nozzle (Teejet 11002VS) and an application volume of 200 litre/ha (at 2 bar).
(§4) The test plants were then grown in a glasshouse under controlled conditions (at 24/16° C., day/night; 14 hours light; 65% humidity) for warm climate species and (at 20/16° C. day/night; 15 hours light; 65% humidity) for cool climate species and watered twice daily. After 7 and 14 days the test was evaluated (100=total damage to plant; 0=no damage to plant).
(§5) A value of n/t indicates not tested.
(§6) Glycine Max (GLXMA), Solanum turberosum (SOLTU), Gossypium hirsutum (GOSHI), Brassica napus (BRSNN), Helianthus annus (HELAN)

[2] = system: Solanum turberosum (SOLTU); test: Pre-harvest desiccation of crop plants; details: Table E, evaluated after 7 and 14 days (which not stated), 100=total damage to plant, 0=no damage
Procedure: as §1, §2, §3, §4, §5, §6

[3] = system: Gossypium hirsutum (GOSHI); test: Pre-harvest desiccation of crop plants; details: Table E, evaluated after 7 and 14 days (which not stated), 100=total damage to plant, 0=no damage
Procedure: as §1, §2, §3, §4, §5, §6

[4] = system: Brassica napus (BRSNN); test: Pre-harvest desiccation of crop plants; details: Table E, evaluated after 7 and 14 days (which not stated), 100=total damage to plant, 0=no damage
Procedure: as §1, §2, §3, §4, §5, §6

[5] = system: Digitaria sanguinalis (DIGSA); test: Post-emergence efficacy, Method A; details: Application rate 500 g/Ha; evaluated after 13 days; 100=total damage to plant, 0=no damage to plant
Outline: (§7)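 Plants grown 14 days in glasshouse (24/16 °C, 14 h light, 65% humidity) were sprayed with compound formulated in IF50. The spray was diluted in 0.25% or 1% Empicol ESC70 plus 1% ammonium sulphate. Damage was scored 13 days later on a 0-100 scale, where 100 is total damage.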

[6] = system: Setaria faberi (SETFA); test: Post-emergence efficacy, Method A; details: Application rate 500 g/Ha; evaluated after 13 days; 100=total damage to plant, 0=no damage to plant
Outline: as §7

[7] = system: Eleusine indica (ELEIN); test: Post-emergence efficacy, Method A; details: Application rate 500 g/Ha; evaluated after 13 days; 100=total damage to plant, 0=no damage to plant
Outline: as §7

[8] = system: Echinochloa crus-galli (ECHCG); test: Post-emergence efficacy, Method A; details: Application rate 500 g/Ha; evaluated after 13 days; 100=total damage to plant, 0=no damage to plant
Outline: as §7

[9] = system: Lolium perenne (LOLPE); test: Post-emergence efficacy, Method A; details: Application rate 500 g/Ha; evaluated after 13 days; 100=total damage to plant, 0=no damage to plant
Outline: as §7

[10] = system: Euphorbia heterophylla (EPHHL); test: Post-emergence efficacy, Method A; details: Application rate 500 g/Ha; evaluated after 13 days; 100=total damage to plant, 0=no damage to plant
Outline: as §7

[11] = system: Digitaria sanguinalis (DIGSA); test: Post-emergence efficacy, Method B; details: Method B, 1000 g/Ha, 100=total damage to plant, 0=no damage, read-out: Control of weed species after post-emergence application, DIGSA
Procedure: (§8) An “instant formulation”, known as the IF50, containing 50 g/L of the “technical” (i.e. unformulated) active ingredient was prepared by dissolving the active ingredient in a mixture of organic solvents and emulsifier, details of which are provided in the table. This IF50 was then mixed with a small, variable amount of acetone to aid dissolution, before addition of an aqueous solution of 1% v/v ammonium sulphate+1% v/v Empicol ESC70 (Sodium lauryl ether sulphate) adjuvant, as the aqueous diluent, to form an aqueous spray solution which contains a predetermined concentration of the active ingredient (which varies depending on the application rate of the active ingredient to the plants).
(§9) This aqueous spray solution was then sprayed onto the plants, after about 12 days' cultivation. The plants were grown from seeds sown in standard soil, placed in a glasshouse under controlled conditions (at 24/18° C. or 20/16° C., day/night; 16 hours light; 65% humidity). After spray application the plants were then grown on in a glasshouse under the same conditions and watered twice daily. […] the test was evaluated (100=total damage to plant; 0=no damage to plant).
(§10) Ipomoea hederacea (IPOHE), Euphorbia heterophylla (EPHHL), Chenopodium album (CHEAL), Amaranthus retroflexus (AMARE), Lolium perenne (LOLPE), Digitaria sanguinalis (DIGSA), Eleusine indica (ELEIN), Echinochloa crus-galli (ECHCG), Setaria faberi (SETFA)

[12] = system: Amaranthus retroflexus (AMARE); test: Post-emergence efficacy, Method B; details: Method B, 1000 g/Ha, 100=total damage to plant, 0=no damage, read-out: Control of weed species after post-emergence application, AMARE
Procedure: as §8, §9, §10

[13] = system: Setaria faberi (SETFA); test: Post-emergence efficacy, Method B; details: Method B, 1000 g/Ha, 100=total damage to plant, 0=no damage, read-out: Control of weed species after post-emergence application, SETFA
Procedure: as §8, §9, §10

[14] = system: Echinochloa crus-galli (ECHCG); test: Post-emergence efficacy, Method B; details: Method B, 1000 g/Ha, 100=total damage to plant, 0=no damage, read-out: Control of weed species after post-emergence application, ECHCG
Procedure: as §8, §9, §10

[15] = system: Lolium perenne (LOLPE); test: Post-emergence efficacy, Method B; details: Method B, 1000 g/Ha, 100=total damage to plant, 0=no damage, read-out: Control of weed species after post-emergence application, LOLPE
Procedure: as §8, §9, §10

[16] = system: Ipomoea hederacea (IPOHE); test: Post-emergence efficacy, Method B; details: Method B, 1000 g/Ha, 100=total damage to plant, 0=no damage, read-out: Control of weed species after post-emergence application, IPOHE
Procedure: as §8, §9, §10

[17] = system: Chenopodium album (CHEAL); test: Post-emergence efficacy, Method B; details: Method B, 1000 g/Ha, 100=total damage to plant, 0=no damage, read-out: Control of weed species after post-emergence application, CHEAL
Procedure: as §8, §9, §10

Row | SMILES | Post-emergence dessication efficacy, GLXMA ([1]; 150 g/Ha) | Post-emergence dessication efficacy, GLXMA ([1]; 300 g/Ha) | Post-emergence dessication efficacy, GLXMA ([1]; 600 g/Ha) | Post-emergence dessication efficacy, SOLTU ([2]; 150 g/Ha) | Post-emergence dessication efficacy, SOLTU ([2]; 300 g/Ha) | Post-emergence dessication efficacy, SOLTU ([2]; 600 g/Ha) | Post-emergence dessication efficacy, GOSHI ([3]; 150 g/Ha) | Post-emergence dessication efficacy, GOSHI ([3]; 300 g/Ha) | Post-emergence dessication efficacy, GOSHI ([3]; 600 g/Ha) | Post-emergence dessication efficacy, BRSNN ([4]; 150 g/Ha) | Post-emergence dessication efficacy, BRSNN ([4]; 300 g/Ha) | Post-emergence dessication efficacy, BRSNN ([4]; 600 g/Ha) | also measured
1 | O=S(=O)([O-])CC[n+]1ccc(-c2cccnn2)cn1 [Compound A5, 2-(4-pyridazin-3-ylpyridazin-1-ium-1-yl)ethanesulfonate] | 83 | 93 | 100 | 27 | 53 | 60 | 82 | 98 | 100 | 50 | 72 | 82 | 
2 | O=C(O)CC[n+]1ccc(-c2ncccn2)cn1.[Cl-] [Compound A26, 3-(4-pyrimidin-2-ylpyridazin-1-ium-1-yl)propanoic acid chloride] | 96 | 93 | 99 | 62 | 95 | 73 | 100 | 100 | 100 | 65 | 97 | 99 | Control of weed species after post-emergence application, DIGSA [5]: 100; Control of weed species after post-emergence application, SETFA [6]: 100; Control of weed species after post-emergence application, ELEIN [7]: 100; Control of weed species after post-emergence application, ECHCG [8]: 100; Control of weed species after post-emergence application, LOLPE [9]: 90; Control of weed species after post-emergence application, EPHHL [10]: 100
3 | Cl.O=C(O)CC[n+]1ccc(-c2cccnn2)cn1.[Cl-] [Compound A234, 3-(4-pyridazin-1-ium-3-ylpyridazin-1-ium-1-yl)propanoic acid dichloride] | 97 and 52 | 97 and 67 | 97 and 63 |  |  |  |  |  | 100 and 50 | 99 | 100 | 100 | Post-emergence dessication efficacy, GLXMA ([1]; 75 g/Ha): 25; Post-emergence dessication efficacy, SOLTU ([2]; 75 g/Ha): 7; Post-emergence dessication efficacy, GOSHI ([3]; 75 g/Ha): 33; Post-emergence dessication efficacy, BRSNN ([4]; 75 g/Ha): 77
4 | N#C[N-]C(=O)CC[n+]1ccc(-c2ncccn2)cn1 [Compound A226] |  |  |  |  |  |  |  |  |  |  |  |  | pest or weed control at 1000 g/ha [11]: 100%; pest or weed control at 1000 g/ha [12]: 100%; pest or weed control at 1000 g/ha [13]: 70%; pest or weed control at 1000 g/ha [14]: 100%; pest or weed control at 1000 g/ha [15]: 70%; pest or weed control at 1000 g/ha [16]: 100%; pest or weed control at 1000 g/ha [17]: 100%
